Legend:
Format in all cases: in vivo
[1] = system: panelists; assay: Confirmation of umami imparting and saltiness enhancing effect in 0.3 mass % sodium chloride (point score); details: average point of 10 panelists vs control, 0 no change, 1 slightly higher, 2 higher, 3 considerably higher, 4 extremely higher umami and saltiness, 5 bitter as lacking balance
Description: An aqueous 0.3 mass % sodium chloride solution (control), and solutions of the invention products 1 to 6 each dissolved in a 0.3 mass % sodium chloride solution to have the concentration shown in Table 5 were prepared. As a comparative product, a solution was prepared by dissolving the comparative product 1 in 0.3 mass % sodium chloride. Well-trained 10 panelists tasted the solutions for organoleptic evaluation of umami impartment and saltiness enhancement.
Umami and saltiness scores are as follows, based on the aqueous 0.3 mass % sodium chloride solution as a control. Each sample was given any of a point 0, no change from control; 1, slightly higher umami and saltiness than control; 2, higher umami and saltiness than control; 3, considerably higher umami and saltiness than control; 4, extremely higher umami and saltiness than control; and 5, bitter as lacking balance of umami and saltiness.

[2] = system: panelists; assay: Confirmation of umami in water (point score); details: average point of 10 panelists, 0 no difference from control (water), 1 somewhat stronger, 2 stronger, 3 considerably stronger, 4 poor taste balance
Description: As a comparative product, a solution was prepared by dissolving the comparative product 1 (2-(2-benzyloxyethyl)pyridine) to have the same concentration. Water with no addition was prepared as a control product. Well-trained 10 panelists tasted the solutions prepared by dissolving any the invention products 1 to 6 and the comparative product 1 for organoleptic evaluation of umami.
Umami evaluation was based on the control product of water.

[3] = system: panelists; assay: Flavor evaluation of ethanol solution (bottle mouth and flavor paper); details: 1% ethanol solution, typical evaluation, 5 panelists
Description: (§1) A 1% ethanol solution of the invention products 1 to 6 prepared in Examples 1 to 6 was prepared as an evaluation solution. The evaluation solution was prepared in a sample bottle. Regarding the flavor of the sample smelling from the bottle mouth and the flavor of a flavor paper prepared by infiltrating the evaluation solution into a paper, well-trained 5 panelists tested the solution for flavor evaluation.
as §1, with “0.1%” for “1%”, “product 101 (2-(3-benzyloxypropyl)pyridine)” for “products 1 to 6”, “Example 101” for “Examples 1 to 6”, “evaluation. A typical evaluation of the product is as follows.” for “evaluation.”

[4] = 0.05 ppb in aqueous 0.3 mass % sodium chloride solution
[5] = 0.1 ppb in aqueous 0.3 mass % sodium chloride solution
[6] = 0.1 ppm in aqueous 0.3 mass % sodium chloride solution
[7] = 0.5 ppm in aqueous 0.3 mass % sodium chloride solution
[8] = 1 ppb in aqueous 0.3 mass % sodium chloride solution
[9] = 2 ppm in aqueous 0.3 mass % sodium chloride solution
[10] = 10 ppb in aqueous 0.3 mass % sodium chloride solution
[11] = 10 ppm in aqueous 0.3 mass % sodium chloride solution
[12] = 50 ppm in aqueous 0.3 mass % sodium chloride solution

Row | SMILES | umami and saltiness (average point) [1, 4] | umami and saltiness (average point) [1, 5] | umami and saltiness (average point) [1, 6] | umami and saltiness (average point) [1, 7] | umami and saltiness (average point) [1, 8] | umami and saltiness (average point) [1, 9] | umami and saltiness (average point) [1, 10] | umami and saltiness (average point) [1, 11] | umami and saltiness (average point) [1, 12] | umami (average point) ([2]; 0.1 ppm in water) | umami (average point) ([2]; 1 ppm in water) | umami (average point) ([2]; 2 ppb in water) | umami (average point) ([2]; 10 ppb in water) | umami (average point) ([2]; 20 ppm in water) | umami (average point) ([2]; 200 ppm in water) | umami (average point) ([2]; 500 ppm in water) | umami (average point) ([2]; 2000 ppm in water) | Flavor Evaluation [3]
1 | c1ccc(COCCCCc2ccccn2)cc1 [invention product 1, 2-(4-benzyloxybutyl)pyridine] | 0.0 | 0.8 | 3.2 | 3.7 | 1.4 | 4.3 | 2.3 | 4.7 | 4.9 | 1.6 | 2.3 | 0.0 | 0.8 | 2.9 | 3.4 | 3.8 | 4.0 | Earthy
2 | c1ccc(CCOCCc2ccccn2)cc1 [invention product 2, 2-(2-phenylethoxyethyl)pyridine] | 0.0 | 0.7 | 3.0 | 3.9 | 1.5 | 4.4 | 2.4 | 4.6 | 5.0 | 1.5 | 2.0 | 0.0 | 0.7 | 2.8 | 3.2 | 3.8 | 4.0 | Earthy, hyacinthine
3 | COc1ccc(COCCCc2ccccn2)cc1 [invention product 3, 2-[3-(p-methoxybenzyloxy)propyl]pyridine] | 0.0 | 0.8 | 3.3 | 3.5 | 1.6 | 4.2 | 2.6 | 4.8 | 4.9 | 1.4 | 2.1 | 0.0 | 0.8 | 2.8 | 3.0 | 3.6 | 3.9 | Bitter almond
4 | c1ccc(CCSCCc2ccccn2)cc1 [invention product 4, 2-(2-phenylethylthioethyl)pyridine] | 0.0 | 0.6 | 3.4 | 3.8 | 1.8 | 4.5 | 2.3 | 4.8 | 5.0 | 1.6 | 2.2 | 0.0 | 0.7 | 3.0 | 3.6 | 3.9 | 4.0 | Metallic spicy savor
5 | Cc1ccc(COCCCc2ccccn2)cc1 [invention product 5, 2-[3-(p-methylbenzyloxy)propyl]pyridine] | 0.0 | 0.8 | 3.0 | 3.6 | 1.5 | 4.2 | 2.2 | 4.6 | 4.8 | 1.4 | 2.0 | 0.0 | 0.6 | 2.7 | 3.1 | 3.6 | 3.9 | Nutty
6 | Cc1ccc(C)c(COCCCc2ccccn2)c1 [invention product 6, 2-[3-(2,5-dimethylbenzyloxy)propyl]pyridine] | 0.0 | 0.5 | 2.9 | 3.5 | 1.3 | 4.1 | 2.0 | 4.6 | 4.8 | 1.2 | 2.0 | 0.0 | 0.5 | 2.6 | 3.0 | 3.6 | 3.9 | Rummy

From patent US10894772B2, “Flavor modulator having pyridine derivative or salt thereof as active ingredient” (T. HASEGAWA CO., LTD., priority 2015, dated 2021)
